Values of other authors, collected in US9192673B2, “Fine dry particulate resveratrol active agent compositions and topical formulations including the same” (priority 2013, dated 2015).

Conditions: background statement

- solubility in water and in lipophilic components: almost insoluble
SMILES: Oc1ccc(/C=C/c2cc(O)cc(O)c2)cc1 [resveratrol, 3,5,4′-trihydroxystilbene]
